Measurements as given in ChEMBL document CHEMBL5104121, “Stereoisomeric Pam2CS based TLR2 agonists: synthesis, structural modelling and activity as vaccine adjuvants” (RSC Med Chem, 2022).
Calls of active or inactive are those of the source. The calls are words filed in the database; no cut-off is given here. Where a SMILES comes first, the peptide text is derived from it. The star is where a group is joined. Propyl(2R-PamO,3-PamO) = CCCCCCCCCCCCCCCC(=O)OC[C@H](C*)OC(=O)CCCCCCCCCCCCCCC; Palmitoyl = CCCCCCCCCCCCCCCC(=O)*

Legend:
Mus musculus [1] = assay: Protection against influenza A/California/04/2009 virus-challenged C57BL/6 mouse assessed as effect on body weight at 10 ug, IM administered twice 2 weeks apart along with recombinant influenza A/California/04/2009 HA protein immunization; type: functional, organism-based; settings: dose 10.0 µg
TLR2/TLR6 [2] = target: T1, TLR2/TLR6 (Homo sapiens, UniProt O60603+Q9Y2C9); assay: Agonist activity at human TLR2/TLR6 expressed in HEK-Blue hTLR2-TLR6 cells by SEAP reporter gene based Quanti-blue assay; type: cell-based
T1 sequence (O60603 whole entry): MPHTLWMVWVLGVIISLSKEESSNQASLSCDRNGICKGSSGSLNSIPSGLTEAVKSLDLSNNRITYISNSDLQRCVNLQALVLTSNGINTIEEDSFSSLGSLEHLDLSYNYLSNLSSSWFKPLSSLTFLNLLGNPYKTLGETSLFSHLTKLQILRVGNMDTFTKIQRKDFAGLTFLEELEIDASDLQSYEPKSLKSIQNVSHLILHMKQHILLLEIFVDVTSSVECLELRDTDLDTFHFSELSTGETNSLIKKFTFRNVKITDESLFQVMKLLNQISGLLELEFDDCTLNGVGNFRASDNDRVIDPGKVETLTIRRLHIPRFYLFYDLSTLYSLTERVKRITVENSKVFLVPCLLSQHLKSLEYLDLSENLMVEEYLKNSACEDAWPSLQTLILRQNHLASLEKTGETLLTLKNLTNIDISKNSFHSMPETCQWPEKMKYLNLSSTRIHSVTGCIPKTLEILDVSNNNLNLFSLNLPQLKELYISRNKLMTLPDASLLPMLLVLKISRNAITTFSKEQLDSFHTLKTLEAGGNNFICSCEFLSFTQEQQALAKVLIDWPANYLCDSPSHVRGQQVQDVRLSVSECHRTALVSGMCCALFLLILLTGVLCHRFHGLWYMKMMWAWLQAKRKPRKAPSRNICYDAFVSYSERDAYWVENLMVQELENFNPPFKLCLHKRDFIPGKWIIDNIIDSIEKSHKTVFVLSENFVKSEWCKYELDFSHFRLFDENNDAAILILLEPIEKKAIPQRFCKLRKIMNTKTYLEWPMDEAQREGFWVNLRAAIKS
T1 sequence (Q9Y2C9 whole entry): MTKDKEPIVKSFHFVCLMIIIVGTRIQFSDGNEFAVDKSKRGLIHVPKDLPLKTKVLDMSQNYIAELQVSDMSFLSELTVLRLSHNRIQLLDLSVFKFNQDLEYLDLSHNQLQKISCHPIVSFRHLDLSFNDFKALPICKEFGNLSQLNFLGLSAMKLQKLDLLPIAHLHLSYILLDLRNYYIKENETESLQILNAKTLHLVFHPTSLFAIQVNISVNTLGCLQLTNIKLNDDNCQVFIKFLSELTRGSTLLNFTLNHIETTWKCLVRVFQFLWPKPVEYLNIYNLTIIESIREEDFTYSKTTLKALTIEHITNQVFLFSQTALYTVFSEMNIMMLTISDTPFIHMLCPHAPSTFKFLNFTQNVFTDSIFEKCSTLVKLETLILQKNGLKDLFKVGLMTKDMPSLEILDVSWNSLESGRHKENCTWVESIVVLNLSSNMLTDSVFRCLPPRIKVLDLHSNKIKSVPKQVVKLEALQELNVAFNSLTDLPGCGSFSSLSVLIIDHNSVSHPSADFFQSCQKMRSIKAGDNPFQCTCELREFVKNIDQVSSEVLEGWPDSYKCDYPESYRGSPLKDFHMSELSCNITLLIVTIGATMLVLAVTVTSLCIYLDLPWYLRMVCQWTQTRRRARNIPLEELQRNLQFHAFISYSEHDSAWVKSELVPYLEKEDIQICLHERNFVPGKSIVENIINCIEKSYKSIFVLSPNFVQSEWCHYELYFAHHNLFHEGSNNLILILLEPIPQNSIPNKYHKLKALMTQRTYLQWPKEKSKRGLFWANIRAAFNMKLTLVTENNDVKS

Mus musculus [3] = assay: Immuno-adjuvant activity in C57BL/6 mouse immunized with recombinant hepatitis B surface antigen assessed as increase in IgG2/IgG1 ratio at 10 ug, IM administered twice 2 weeks apart by ELISA analysis; type: functional, organism-based; settings: dose 10.0 µg
Mus musculus [4] = assay: Immuno-adjuvant activity in C57BL/6 mouse immunized with recombinant influenza A/California/04/2009 HA protein assessed as increase in anti-HAs antibody at 10 ug, IM administered twice 2 weeks apart by ELISA analysis; type: functional, organism-based; settings: dose 10.0 µg
TLR2/TLR6 (Mus musculus) [5] = target: T2, TLR2/TLR6 (Mus musculus) (UniProt Q9QUN7+Q9EPW9); assay: Agonist activity at TLR2/TLR6 in C57BL/6 mouse spleen dendritic cells assessed as increase in CD86 expression incubated for 24 hrs by fluorescence based flow cytometric analysis; type: tissue-based; settings: Dendritic cell, filed as agonist, dose 10-0.1 µg/ml, DDE = dose-dependent effect
TLR2/TLR6 (Mus musculus) [6] = target: T2, TLR2/TLR6 (Mus musculus); assay: Agonist activity at TLR2/TLR6 in C57BL/6 mouse spleen dendritic cells assessed as increase in CD40 expression incubated for 24 hrs by fluorescence based flow cytometric analysis; type: tissue-based; settings: Dendritic cell, filed as agonist, dose 10-0.1 µg/ml, DDE = dose-dependent effect
TLR2/TLR6 [7] = target: T1, TLR2/TLR6; assay: Agonist activity at TLR2/TLR6 in human PBMC cells assessed as increase in IL-6 production at 0.1 ug/ml incubated for 24 hrs; type: cell-based; settings: filed as agonist, dose 0.1 µg/ml
TLR2/TLR6 [8] = target: T1, TLR2/TLR6; assay: Agonist activity at TLR2/TLR6 in human PBMC cells assessed as increase in TNF-alpha production at 0.1 ug/ml incubated for 24 hrs; type: cell-based; settings: filed as agonist, dose 0.1 µg/ml
Mus musculus [9] = assay: Protection against influenza A/California/04/2009 virus-challenged C57BL/6 mouse assessed as effect on survival at 10 ug, IM administered twice 2 weeks apart along with recombinant influenza A/California/04/2009 HA protein immunization; type: functional, organism-based; settings: dose 10.0 µg
Mus musculus [10] = assay: Immuno-adjuvant activity in C57BL/6 mouse immunized with recombinant hepatitis B surface antigen assessed as increase in anti-HBs antibody at 10 ug, IM administered twice 2 weeks apart by ELISA analysis; type: functional, organism-based; settings: dose 10.0 µg
TLR2/TLR6 (Mus musculus) [11] = target: T2, TLR2/TLR6 (Mus musculus); assay: Agonist activity at TLR2/TLR6 in C57BL/6 mouse spleen B cells assessed as increase in CD86 expression incubated for 24 hrs by fluorescence based flow cytometric analysis; type: tissue-based; settings: B cell, filed as agonist, dose 10-0.1 µg/ml, DDE = dose-dependent effect
TLR2/TLR6 (Mus musculus) [12] = target: T2, TLR2/TLR6 (Mus musculus); assay: Agonist activity at TLR2/TLR6 in C57BL/6 mouse spleen B cells assessed as increase in CD40 expression incubated for 24 hrs by fluorescence based flow cytometric analysis; type: tissue-based; settings: B cell, filed as agonist, dose 10-0.1 µg/ml, DDE = dose-dependent effect
TLR2/TLR6 [13] = target: T1, TLR2/TLR6; assay: Agonist activity at TLR2/TLR6 in human PBMC cells assessed as increase in IL-10 production at 0.1 ug/ml incubated for 24 hrs; type: cell-based; settings: filed as agonist, dose 0.1 µg/ml
TLR2/TLR6 (Mus musculus) [14] = target: T2, TLR2/TLR6 (Mus musculus); assay: Agonist activity at TLR2/TLR6 in C57BL/6 mouse spleen B cells assessed as increase in CD40 expression at 10 to 0.1 ug/ml incubated for 24 hrs by fluorescence based flow cytometric analysis; type: tissue-based; settings: B cell, filed as agonist, dose 10-0.1 µg/ml
TLR2/TLR6 (Mus musculus) [15] = target: T2, TLR2/TLR6 (Mus musculus); assay: Agonist activity at TLR2/TLR6 in C57BL/6 mouse spleen dendritic cells assessed as increase in CD40 expression at 10 to 0.1 ug/ml incubated for 24 hrs by fluorescence based flow cytometric analysis; type: tissue-based; settings: Dendritic cell, filed as agonist, dose 10-0.1 µg/ml
TLR2/TLR6 (Mus musculus) [16] = target: T2, TLR2/TLR6 (Mus musculus); assay: Agonist activity at TLR2/TLR6 in C57BL/6 mouse spleen B cells assessed as increase in CD86 expression at 10 to 0.1 ug/ml incubated for 24 hrs by fluorescence based flow cytometric analysis; type: tissue-based; settings: B cell, filed as agonist, dose 10-0.1 µg/ml
TLR2/TLR6 (Mus musculus) [17] = target: T2, TLR2/TLR6 (Mus musculus); assay: Agonist activity at TLR2/TLR6 in C57BL/6 mouse spleen dendritic cells assessed as increase in CD86 expression at 10 to 0.1 ug/ml incubated for 24 hrs by fluorescence based flow cytometric analysis; type: tissue-based; settings: Dendritic cell, filed as agonist, dose 10-0.1 µg/ml

SMILES | EC50 (TLR2/TLR6 [2]) [nM] | Activity (TLR2/TLR6 [7]) | Activity (TLR2/TLR6 [8]) | Activity (Mus musculus [10]) | Activity (TLR2/TLR6 [13]) | also measured
CCCCCCCCCCCCCCCC(=O)OC[C@H](CSC[C@H](N)C(=O)N[C@@H](CO)C(=O)OC)OC(=O)CCCCCCCCCCCCCCC | 0.4 | Active | Active | Active | Active | Activity (Mus musculus [1]): Active; Activity (Mus musculus [3]): Active; Activity (Mus musculus [4]): Active; Activity (TLR2/TLR6 (Mus musculus) [5]): Dde; Activity (TLR2/TLR6 (Mus musculus) [6]): Dde; Activity (Mus musculus [9]): Active; Activity (TLR2/TLR6 (Mus musculus) [11]): Dde; Activity (TLR2/TLR6 (Mus musculus) [12]): Dde
CCCCCCCCCCCCCCCC(=O)N[C@@H](CSC[C@@H](COC(=O)CCCCCCCCCCCCCCC)OC(=O)CCCCCCCCCCCCCCC)C(=O)N[C@@H](CO)C(=O)N[C@@H](CCCCN)C(=O)N[C@@H](CCCCN)C(=O)N[C@@H](CCCCN)C(=O)N[C@@H](CCCCN)C(=O)O (Palmitoyl-C(Propyl(2R-PamO,3-PamO))SKKKK-OH) | 19.3 | Active | Active | Active | Active | Activity (TLR2/TLR6 (Mus musculus) [14]): Active; Activity (TLR2/TLR6 (Mus musculus) [15]): Active; Activity (TLR2/TLR6 (Mus musculus) [16]): Active; Activity (TLR2/TLR6 (Mus musculus) [17]): Active
CCCCCCCCCCCCCCCC(=O)OC[C@@H](CSC[C@H](NC(C)=O)C(=O)N[C@@H](CO)C(=O)OC)OC(=O)CCCCCCCCCCCCCCC | 252 | Active | Active | – | Active | –
CCCCCCCCCCCCCCCC(=O)OC[C@H](CSC[C@H](NC(C)=O)C(=O)N[C@@H](CO)C(=O)OC)OC(=O)CCCCCCCCCCCCCCC | 0.8 | Active | Active | Active | Active | Activity (Mus musculus [1]): Active; Activity (Mus musculus [3]): Active; Activity (Mus musculus [4]): Active; Activity (Mus musculus [9]): Active
CCCCCCCCCCCCCCCC(=O)OC[C@@H](CSC[C@H](NC(=O)OC(C)(C)C)C(=O)N[C@@H](COC(C)(C)C)C(=O)OC)OC(=O)CCCCCCCCCCCCCCC | 4270 | – | – | – | – | –
CCCCCCCCCCCCCCCC(=O)OC[C@@H](CSC[C@H](N)C(=O)N[C@@H](CO)C(=O)OC)OC(=O)CCCCCCCCCCCCCCC | 134 | – | – | – | – | Activity (TLR2/TLR6 (Mus musculus) [5]): Dde; Activity (TLR2/TLR6 (Mus musculus) [6]): Dde; Activity (TLR2/TLR6 (Mus musculus) [11]): Dde; Activity (TLR2/TLR6 (Mus musculus) [12]): Dde
CCCCCCCCCCCCCCCC(=O)OCC(CSC[C@H](NC(=O)OC(C)(C)C)C(=O)N[C@@H](COC(C)(C)C)C(=O)OC)OC(=O)CCCCCCCCCCCCCCC (mixture of isomers) | 5640 | – | – | – | – | –
CCCCCCCCCCCCCCCC(=O)OC[C@H](CSC[C@H](NC(=O)OC(C)(C)C)C(=O)N[C@@H](COC(C)(C)C)C(=O)OC)OC(=O)CCCCCCCCCCCCCCC | 5870 | – | – | – | – | Activity (TLR2/TLR6 (Mus musculus) [16]): Active; Activity (TLR2/TLR6 (Mus musculus) [17]): Active
CCCCCCCCCCCCCCCC(=O)OCC(CSC[C@H](NC(C)=O)C(=O)N[C@@H](CO)C(=O)OC)OC(=O)CCCCCCCCCCCCCCC (mixture of isomers) | 5 | Active | Active | – | Active | –
CCCCCCCCCCCCCCCC(=O)OCC(CSC[C@H](N)C(=O)N[C@@H](CO)C(=O)OC)OC(=O)CCCCCCCCCCCCCCC (mixture of isomers) | 1 | Active | Active | – | Active | Activity (Mus musculus [1]): Active; Activity (Mus musculus [4]): Active; Activity (Mus musculus [9]): Active
CCCCCCCCCCCCCCCC(=O)OC[C@H](CSC[C@H](N)C(=O)N[C@@H](CO)C(=O)N[C@@H](CCCCN)C(=O)N[C@@H](CCCCN)C(=O)N[C@@H](CCCCN)C(=O)N[C@@H](CCCCN)C(=O)O)OC(=O)CCCCCCCCCCCCCCC (H-C(Propyl(2R-PamO,3-PamO))SKKKK-OH) | 0.3 | Active | Active | Active | Active | Activity (TLR2/TLR6 (Mus musculus) [14]): Active; Activity (TLR2/TLR6 (Mus musculus) [15]): Active; Activity (TLR2/TLR6 (Mus musculus) [16]): Active; Activity (TLR2/TLR6 (Mus musculus) [17]): Active
